One block for each molecule: values may come before it. The source made the active and inactive calls.
What was measured:
[1] = biological target: Trypsin (Sus scrofa, UniProt P00761); assay: trypsin protease activity blockade – biochemical, quenched peptide fluorescence, cherry-pick, selectivity assay for Rce1 protease inhibitor project, dose response (AID 488789)
[2] = biological target: CAAX prenyl protease 1 (Saccharomyces cerevisiae S288c, UniProt P47154); assay: yeast CAAX protease Ste24 inhibition – biochemical, S. cerevisiae, plate reader, cherry-pick, dose response (AID 488815)
Chain of CAAX prenyl protease 1 (P47154 whole entry): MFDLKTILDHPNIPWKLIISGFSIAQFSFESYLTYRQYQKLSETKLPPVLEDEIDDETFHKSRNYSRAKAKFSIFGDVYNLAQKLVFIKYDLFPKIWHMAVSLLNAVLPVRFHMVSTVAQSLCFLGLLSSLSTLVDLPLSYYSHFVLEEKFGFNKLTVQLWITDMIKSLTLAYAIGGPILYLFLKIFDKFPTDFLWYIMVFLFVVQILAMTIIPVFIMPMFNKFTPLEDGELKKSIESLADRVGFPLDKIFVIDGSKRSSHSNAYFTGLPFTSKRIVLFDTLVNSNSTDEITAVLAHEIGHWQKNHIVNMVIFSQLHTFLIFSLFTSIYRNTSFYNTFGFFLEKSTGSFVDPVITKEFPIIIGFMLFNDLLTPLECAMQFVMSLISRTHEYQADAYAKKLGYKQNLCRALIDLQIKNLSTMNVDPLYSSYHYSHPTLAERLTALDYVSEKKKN

[3] = biological target: T1, CAAX prenyl protease 2 (Homo sapiens, UniProt Q9Y256); assay: inhibition of Ras-converting CAAX protease Rce1 – biochemical, yeast membranes, quenched-peptide fluorescence, cherry-pick, dose response (AID 588849)
T1 sequence (Q9Y256 whole entry): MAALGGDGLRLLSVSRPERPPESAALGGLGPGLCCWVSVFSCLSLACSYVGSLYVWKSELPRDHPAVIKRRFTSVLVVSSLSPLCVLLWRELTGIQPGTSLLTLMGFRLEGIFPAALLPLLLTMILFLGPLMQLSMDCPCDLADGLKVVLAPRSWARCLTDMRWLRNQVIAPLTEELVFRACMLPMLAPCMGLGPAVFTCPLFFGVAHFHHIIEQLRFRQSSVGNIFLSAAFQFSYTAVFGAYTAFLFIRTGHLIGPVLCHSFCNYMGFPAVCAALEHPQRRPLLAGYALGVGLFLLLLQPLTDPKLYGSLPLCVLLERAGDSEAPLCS

[4] = system: HEK293; assay: inhibition of NOD1-driven NF-kB reporter – cell-based, luminescence, uHTS, primary screen (AID 1578); type: functional; details: Homo sapiens
[5] = system: HEK293; assay: cells; type: functional, cell-based; details: Homo sapiens
[6] = system: HEK293; assay: cells; type: functional, cell-based; details: Homo sapiens; remark: listed apart in the source
[7] = system: HEK293; assay: NOD2 signaling inhibitors in MDP-stimulated cells, cell-based, uHTS, luminescence (AID 2001); type: functional; details: Homo sapiens
[8] = biological target: Nucleotide-binding oligomerization domain-containing protein 1 (Homo sapiens, UniProt Q9Y239); assay: blockers of NOD1 pathway activity – revised, SAR follow-up (AID 2333); type: functional
Chain of Nucleotide-binding oligomerization domain-containing protein 1 (Q9Y239 whole entry, the tested form may be a part): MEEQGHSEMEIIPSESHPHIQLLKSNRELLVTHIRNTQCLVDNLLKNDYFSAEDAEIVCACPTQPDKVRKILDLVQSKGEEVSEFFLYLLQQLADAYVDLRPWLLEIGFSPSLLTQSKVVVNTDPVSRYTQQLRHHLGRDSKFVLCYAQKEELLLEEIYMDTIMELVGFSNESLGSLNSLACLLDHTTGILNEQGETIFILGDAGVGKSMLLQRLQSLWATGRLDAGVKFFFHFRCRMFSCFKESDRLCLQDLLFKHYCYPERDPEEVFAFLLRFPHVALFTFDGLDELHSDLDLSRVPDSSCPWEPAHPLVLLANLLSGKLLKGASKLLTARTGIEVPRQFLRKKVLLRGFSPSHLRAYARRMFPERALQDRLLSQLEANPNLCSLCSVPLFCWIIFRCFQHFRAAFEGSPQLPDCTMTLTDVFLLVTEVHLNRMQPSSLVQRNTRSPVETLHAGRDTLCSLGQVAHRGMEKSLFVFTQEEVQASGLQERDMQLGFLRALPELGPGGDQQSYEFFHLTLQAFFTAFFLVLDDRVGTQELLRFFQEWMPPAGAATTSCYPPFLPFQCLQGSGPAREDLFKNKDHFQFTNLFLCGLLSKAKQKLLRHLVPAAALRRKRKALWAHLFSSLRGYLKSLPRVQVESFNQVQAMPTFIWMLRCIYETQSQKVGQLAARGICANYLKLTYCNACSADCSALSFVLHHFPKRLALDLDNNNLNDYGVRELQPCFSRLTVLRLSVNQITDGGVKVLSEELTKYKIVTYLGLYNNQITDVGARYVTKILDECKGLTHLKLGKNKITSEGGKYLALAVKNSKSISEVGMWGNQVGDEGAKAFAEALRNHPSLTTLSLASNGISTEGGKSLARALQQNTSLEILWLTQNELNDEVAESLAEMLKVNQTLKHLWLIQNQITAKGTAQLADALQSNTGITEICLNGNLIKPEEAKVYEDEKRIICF

[9] = biological target: T2, Corticotropin-releasing factor receptor 2/Corticotropin-releasing factor-binding protein (Homo sapiens, UniProt P24387+Q13324); assay: Dose Response confirmation of uHTS hits for small molecule antagonists of the CRF-binding protein and CRF-R2 receptor complex.; type: functional; details: read-out: IC50_Mean
T2 sequence (Q13324 whole entry): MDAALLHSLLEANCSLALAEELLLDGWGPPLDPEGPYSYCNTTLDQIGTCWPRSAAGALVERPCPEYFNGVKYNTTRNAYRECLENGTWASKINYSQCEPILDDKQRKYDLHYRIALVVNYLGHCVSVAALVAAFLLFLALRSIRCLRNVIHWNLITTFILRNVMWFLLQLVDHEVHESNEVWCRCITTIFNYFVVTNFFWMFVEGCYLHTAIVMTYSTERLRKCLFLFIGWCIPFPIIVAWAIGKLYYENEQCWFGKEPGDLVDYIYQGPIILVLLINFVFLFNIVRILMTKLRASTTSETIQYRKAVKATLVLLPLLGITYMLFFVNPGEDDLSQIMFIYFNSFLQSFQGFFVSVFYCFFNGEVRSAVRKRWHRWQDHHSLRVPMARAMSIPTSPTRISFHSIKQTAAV
T2 sequence (P24387 whole entry): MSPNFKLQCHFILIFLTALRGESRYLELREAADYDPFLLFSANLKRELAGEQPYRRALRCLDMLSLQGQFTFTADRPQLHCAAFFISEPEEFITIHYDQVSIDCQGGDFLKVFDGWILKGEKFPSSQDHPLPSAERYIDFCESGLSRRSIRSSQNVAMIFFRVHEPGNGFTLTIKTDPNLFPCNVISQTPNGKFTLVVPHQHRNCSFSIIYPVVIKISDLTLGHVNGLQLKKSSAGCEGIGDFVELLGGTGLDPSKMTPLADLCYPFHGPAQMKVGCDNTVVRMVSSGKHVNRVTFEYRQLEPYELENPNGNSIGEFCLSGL

[10] = biological target: T2, Corticotropin-releasing factor receptor 2/Corticotropin-releasing factor-binding protein; assay: activators of CRF receptor 2 with binding protein – uHTS hits, confirmation (AID 602473); type: functional; details: read-out: EC50_Mean
[11] = blockers of CRF-binding protein–CRF-R2 complex – cell-based, uHTS hits, 384-well, dose response (AID 651639); type: functional, Homo sapiens; details: read-out: IC50_Mean
[12] = system: HEK293; assay: cells; details: Homo sapiens
[13] = biological target: T3, Short transient receptor potential channel 4 (Mus musculus, UniProt Q9QUQ5); assay: SAR Analysis for the identification of selective inhibits of the transient receptor potential cation channel C4 (TRPC4): Automated Electrophysiology. [Related pubchem assays (depositor defined):AID2256]; type: functional
T3 sequence (Q9QUQ5 whole entry): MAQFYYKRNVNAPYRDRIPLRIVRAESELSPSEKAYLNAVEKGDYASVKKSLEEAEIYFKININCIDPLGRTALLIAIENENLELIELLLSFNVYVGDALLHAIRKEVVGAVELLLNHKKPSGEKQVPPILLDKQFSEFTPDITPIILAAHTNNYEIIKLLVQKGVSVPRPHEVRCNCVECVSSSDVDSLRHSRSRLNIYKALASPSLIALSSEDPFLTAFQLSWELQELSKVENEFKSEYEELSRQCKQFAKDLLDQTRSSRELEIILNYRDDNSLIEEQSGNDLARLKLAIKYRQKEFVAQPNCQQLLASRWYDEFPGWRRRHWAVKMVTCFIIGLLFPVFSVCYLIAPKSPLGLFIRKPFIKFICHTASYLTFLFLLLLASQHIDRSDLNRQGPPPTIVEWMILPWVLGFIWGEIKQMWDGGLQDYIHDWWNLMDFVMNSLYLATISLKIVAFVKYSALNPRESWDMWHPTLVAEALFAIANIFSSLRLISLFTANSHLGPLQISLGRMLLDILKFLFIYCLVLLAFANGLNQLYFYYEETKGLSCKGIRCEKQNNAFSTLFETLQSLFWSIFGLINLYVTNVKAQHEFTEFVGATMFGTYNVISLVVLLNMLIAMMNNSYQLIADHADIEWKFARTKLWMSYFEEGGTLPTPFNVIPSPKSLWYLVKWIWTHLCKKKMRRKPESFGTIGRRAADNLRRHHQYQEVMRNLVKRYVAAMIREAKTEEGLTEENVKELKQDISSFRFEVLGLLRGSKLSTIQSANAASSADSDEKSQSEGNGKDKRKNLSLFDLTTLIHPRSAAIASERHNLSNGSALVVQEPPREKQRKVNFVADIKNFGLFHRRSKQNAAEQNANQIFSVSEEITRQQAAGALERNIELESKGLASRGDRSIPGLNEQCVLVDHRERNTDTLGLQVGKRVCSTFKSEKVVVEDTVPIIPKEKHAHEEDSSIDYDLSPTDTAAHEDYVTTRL

[14] = biological target: T3, Short transient receptor potential channel 4; assay: potency of mouse TRPC4 calcium flux blockers – cell-based, HEK293 TRPC4/mu-opioid, DAMGO stimulus, Fluo-4, dose response (AID 492994); type: functional
[15] = system: Candida albicans; assay: Candida growth inhibition combined with fluconazole – CaCi-2 strain, Alamar Blue, dry powder, set 3, dose response (AID 488907); type: functional, organism-based

Chain of Trypsin (P00761 whole entry): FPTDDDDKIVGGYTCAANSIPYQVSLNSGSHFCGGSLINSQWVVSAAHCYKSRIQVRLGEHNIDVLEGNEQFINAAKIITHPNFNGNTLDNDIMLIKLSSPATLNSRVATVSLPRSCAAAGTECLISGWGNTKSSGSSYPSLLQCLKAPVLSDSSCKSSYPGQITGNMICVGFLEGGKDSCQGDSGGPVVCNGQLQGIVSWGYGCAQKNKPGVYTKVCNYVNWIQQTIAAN

AC50 [1]: 34.3 µM (active)
AC50 [2]: 6.88 µM (active)
AC50 [3]: 10.7 µM (active)
Structure (SMILES): COc1ccc(OC)c(/C=N/NC(=O)CSc2cc(C)nc3c(OC)cccc23)c1

Structure (SMILES): O=C(Nc1nc2c(F)cc(F)cc2s1)c1ccc([N+](=O)[O-])o1
EC50 [4]: 12 µM (active)
IC50 [5]: > 20 µM (inactive)
IC50 [6]: > 20 µM (inactive)
IC50 [7]: 15.5 µM (inactive)
IC50 [8]: 7.18 µM (active)
IC50 [9]: 4.95 µM (active)
EC50 [10]: > 53 µM (inactive)
IC50 [11]: > 20 µM (inactive)
IC50 [12]: > 20 µM (inactive)

IC50 [13]: 140 µM (inactive)
IC50 [14]: 39 µM (active)
Structure (SMILES): Cc1cc(N2CCOCC2)nc2ccccc12

Structure (SMILES): COCCC(=O)N1CCN(c2ccccn2)CC1
AC50 [15]: 5.95 µM (active)

Source: ChEMBL document CHEMBL1201862, “PubChem BioAssay data set” (2004)
